Measured values: a melting point compilation (Tetko et al.; mined from patent text by program, amines drawn as free bases though some values may be those of a salt)

First: COC(=O)C(N)Cc1ccc(OCc2nc3ccc(OC)cc3n2C)cc1 (stereo not given)
Second: CCCCC(Cc1ccc(OCc2ccccc2)cc1)(C(=O)OCC)C(=O)OCC
The melting point of the first is higher: 108 to 111 °C for the first, 73 °C for the second.

First: c1ccc(COc2ccc3[nH]c(-c4ccc[nH]4)cc3c2)cc1
Second: CC(C)(C(N)=O)c1ccc(OCc2ccccc2)cc1
The melting point of the first is higher: 178 to 182 °C for the first, 150 to 151 °C for the second.

Compared with `Nc1cc(Br)nc(Br)c1`, `C=CC(=O)Nc1csc(Br)n1` is lower in melting point: 184 to 186 °C for the first, 152 to 154 °C for the second.

First: CCOCc1nc2c(N)nc(C)c(C)c2n1CCOCC#Cc1ccccc1
Second: CCOC(=O)C(Cc1cccc(OC)c1OCc1ccccc1)(NC(C)=O)C(=O)OCC
The melting point of the first is higher: 129 to 130 °C for the first, 94 to 96 °C for the second.

Compared with `N#CCCc1cccc2c1N(Cc1cccc(/C=C/c3ccc4ccccc4n3)c1)CC2`, `CCCc1c(OCc2cccc(OCc3ccc4ccccc4n3)c2)ccc2c(=O)cc(C(=O)OCC)oc12` is lower in melting point: 126 to 129 °C for the first, 120 to 121 °C for the second.

First: CC(CN1CCCC1)N1c2ccccc2Sc2ccc(C(=O)Nc3ccccc3)cc21 (racemic)
Second: O=C(Nc1ccc(F)cc1F)C1C(=O)N2c3ccccc3Sc3cccc1c32 (stereo not given)
The melting point of the first is lower: 163 °C for the first, 208 to 209 °C for the second.

Compared with `O=Cc1ccc(-c2ccc(C=O)s2)s1`, `Cc1sc(COc2ccc(/C=C/C=O)cc2)nc1-c1ccccc1` is lower in melting point: 213 to 214 °C for the first, 116 to 117 °C for the second.

First: Cc1cccc(NC(=O)N=C2CCCN2C)c1
Second: CCOC(=O)Nc1cccc(-c2ccc3nnc(C)n3n2)c1
The melting point of the first is lower: 137 to 142 °C for the first, 232 to 235 °C for the second.

First: O=C(NC(=O)c1ccco1)NC1CCN(Cc2ccc3ccccc3c2)CC1
Second: COc1cc2ccccc2cc1NC(=O)Nc1cccc2ccccc12
The melting point of the first is higher: 157 to 159 °C for the first, 155 to 156 °C for the second.

First: CCOC(=O)C=Cc1ccc(CCNS(=O)(=O)CCc2ccccc2)cc1
Second: CCN(CC)CCN(c1ccc(C(=O)c2ccccc2)cc1)S(C)(=O)=O
The melting point of the first is higher: 98 to 99 °C for the first, 74 to 76 °C for the second.

First: Cc1cccc(CC(NC(=O)C(c2ccccc2)c2ccccc2)C(=O)NC(C#N)CCOc2cccc(C(=O)O)c2)c1 (stereo not given)
Second: O=C(Cc1cccc(O)c1)NNC(=O)c1c(OCc2ccccc2)cc(OCc2ccccc2)cc1OCc1ccccc1
The melting point of the first is higher: 169 to 170 °C for the first, 154 to 155 °C for the second.

Compared with `N#CCc1c[nH]c2ccc(NC(N)=S)cc12`, `CN1C2C=C(c3c[nH]c4ccc([N+](=O)[O-])cc34)CC1CC2` (stereo not given) is higher in melting point: 212 to 214 °C for the first, 234 to 236 °C for the second.

First: CCCCn1nc(-c2cc(C(C)(C)C)c(O)c(C(C)(C)C)c2)c2cccnc21
Second: CCc1c2nc(-c3cc(S(C)(=O)=O)ccc3OCC(C)C)[nH]c(=O)c2nn1Cc1cccnn1
The melting point of the first is lower: 94 to 96 °C for the first, 244 to 247 °C for the second.

Compared with `CNc1nnc(-c2ccc3ncn(-c4ccc(OC(F)F)cc4)c3c2)o1`, `O=C(Nc1nc2ccc(Sc3nnc4ccc(-c5cccc(F)c5)cn34)cc2s1)C1CC1` is higher in melting point: 195 to 196 °C for the first, over 260 °C for the second.

First: CCCc1oc(C)cc(=O)c1C(=O)Nc1ccccc1
Second: CCCCc1oc2ccccc2c1C(=O)NCc1ccc2c(Br)c(OCC(=O)OC)ccc2c1
The melting point of the first is lower: 133 to 134 °C for the first, 140 to 141 °C for the second.

Compared with `CCN(CC)N(C(C)=O)c1nc2c(C)c3nc(N(C(C)=O)N(CC)CC)sc3cc2s1`, `CCN(CC)CCNc1ccc(C)c2sc3ccc(O)cc3c(=O)c12` is higher in melting point: 191 to 192 °C for the first, 254 to 255 °C for the second.

Compared with `CS(=O)c1ccc(C2=C(c3ccccc3)C(=O)C(C)(C)O2)c(F)c1` (stereo not given), `Cc1ccc([N+](=O)[O-])c(C(=O)N[C@@H]2c3cc(OC(F)(F)F)ccc3OC(C)(C)[C@H]2O)c1` is higher in melting point: 149 to 150 °C for the first, 185 to 187 °C for the second.

Compared with `O=C1CN(CCCBr)Oc2ccccc21`, `O=C1c2ccccc2-c2c1c1ccccc1c(=O)n2CCCCCO` is higher in melting point: 90 to 92 °C for the first, 144 to 146 °C for the second.

Compared with `COc1cc(C2c3cc4c(cc3C(NC3=CC(=O)N(CCCCCC(=O)O)C3=O)C3COC(=O)C23)OCO4)cc(OC)c1O` (stereo not given), `COCCOc1cc2ncnc(NC3=CC(=O)C(Oc4ccc(-n5ccnc5)cc4)=CC3=O)c2cc1OCCOC` is lower in melting point: 150 to 152 °C for the first, 109 to 115 °C for the second.

First: CC1(O)c2ccccc2C=C(Br)c2ccncc21 (stereo not given)
Second: CCOC(=O)c1cnn(-c2ccccc2Oc2ccc(C)cc2O)c1
The melting point of the first is higher: 226 to 230 °C for the first, 118 to 119 °C for the second.

First: FC(F)(F)c1ccnc(N2CCN(Cc3n[nH]c4ccccc34)CC2)c1
Second: Fc1ccccc1-c1n[nH]c(-c2ccccc2C(F)(F)F)n1
The melting point of the first is lower: 99 to 100 °C for the first, 153 to 155 °C for the second.

First: Cc1cc(=O)c(Oc2ccc(Cl)cc2)c(-c2ccc(S(N)(=O)=O)cc2)o1
Second: CS(=O)(=O)c1ccc(-n2cc(-c3cccc(Cl)c3)nc2-c2ccc(Cl)cc2)cc1
The melting point of the first is higher: 221 °C for the first, 156 to 159 °C for the second.

First: O=C(O)C(=NOCc1ccc(Cl)cc1Cl)c1csc(NC(=O)C(F)(F)F)n1
Second: O=C1CCC(=O)C1C(=O)c1ccc(Cl)cc1Cl
The melting point of the first is higher: 170 to 176 °C for the first, 109 to 113 °C for the second.

First: Clc1nnc(Cl)c2c1CCCC2
Second: CN(C(=O)c1ccc(Cn2cnc3ncnc-3c2)cc1)C1CCCCC1
The melting point of the first is lower: 148 to 150 °C for the first, 229 to 230 °C for the second.

Compared with `CCN(CC)CCOc1ccc(C(O)(CC)c2ccc(Cl)cc2)cc1` (stereo not given), `COC(=O)C(=O)c1ccc(OCCCc2ccc(F)cc2)cc1` is lower in melting point: 50 to 51 °C for the first, 42 to 43 °C for the second.

First: Cc1c2n(c3ccccc13)C(=O)C(Cc1c[nH]cn1)CC2 (stereo not given)
Second: CNC1c2ccccc2-c2[nH]c(=O)c3nccn3c21 (stereo not given)
The melting point of the first is lower: 156 to 157 °C for the first, 184 °C for the second.

First: COC(=O)c1ccc(-c2nc(COc3ccc(C=O)cc3OC)c(C)o2)cc1
Second: COc1ccc(-c2nc(C)ccc2OC2SCC(O)C(O)C2O)cc1 (stereo not given)
The melting point of the first is higher: 185 to 186 °C for the first, 86 to 90 °C for the second.

First: CN(C(=O)C(=O)c1cn(Cc2ccc(Cl)cc2)c2ccccc12)C1=CC(=O)OC1
Second: Nc1cccc(C(=O)c2cc3c(Oc4ccc(Cl)cc4)cncc3s2)c1
The melting point of the first is higher: 205 to 208 °C for the first, 174 to 178 °C for the second.

First: CCCCN1CC(C(=O)OC)N(S(=O)(=O)c2ccc(-c3ccc(Br)cc3)cc2)CC1=O (stereo not given)
Second: Cc1ccc(S(=O)(=O)N2CCC[C@H]2C(=O)N[C@@H](Cc2ccc(OCCN3CCCCCC3)cc2)C(=O)O)cc1
The melting point of the first is higher: 113 to 115 °C for the first, 105 to 107 °C for the second.

First: O=c1cc(-c2ccncn2)nc2n1CCCCC2C1CC1 (racemic)
Second: O=C1CC2CC(Oc3nc4ccccc4[nH]3)CC2C1 (stereo not given)
The melting point of the first is lower: 139 to 140 °C for the first, 208 to 209 °C for the second.

Compared with `COC1=CC(=O)C2=C(C1=O)C1C=CC2C1` (stereo not given), `O=C1NC(NCC2CC2)=N/C1=C\c1c[nH]c2ncc(F)cc12` is higher in melting point: 117 to 118 °C for the first, 312 °C for the second.

First: O=C(O)CCC(O)c1ccc(-c2ccc(F)cc2Cl)cc1 (stereo not given)
Second: Cc1ccc(C(=O)NC(NC(=S)Nc2ccc(F)cc2)C(F)(F)F)cc1 (stereo not given)
The melting point of the first is lower: 78 to 79 °C for the first, 208 to 210 °C for the second.

First: Cc1ccc(C)c(C(=O)NC(C)(C)C)c1
Second: CC(C)(C)c1ccc2c3c(c(=O)oc2c1)CNCC3
The melting point of the first is lower: 80 to 82 °C for the first, 181 to 186 °C for the second.

First: Cc1ccc(-c2cc3ccc(C(=O)Nc4ccc(CN(C)C5CCOCC5)cc4)cc3o2)cc1
Second: COCCN(CCOC)Cc1ccc(NC(=O)C2=Cc3cc(-c4ccc(C)cc4)ccc3OCC2)cc1
The melting point of the first is higher: 224 to 227 °C for the first, 110 to 112 °C for the second.

Compared with `Nc1ccc(-c2ccnc(-c3ccc(C(F)(F)F)cc3)n2)cc1`, `COc1ccc(C2=c3c(c4c(c5ccccc35)=C(c3ccc(OC)cc3)CO4)NC2)cc1` is higher in melting point: 166 to 167 °C for the first, 340 °C for the second.

Compared with `OC(=S)CC1c2ccccc2Oc2ccccc21`, `BrC(Br)=Cc1ccccc1NCc1ccccc1` is lower in melting point: 131 to 132 °C for the first, 93 to 95 °C for the second.

Compared with `C=CCCC(C#N)(C#N)Cc1ccc(C#N)cc1`, `C#Cc1ccc([Si](OC)(OC)OC)cc1` is lower in melting point: 109 °C for the first, 38 to 39 °C for the second.

First: Cc1ccc(N2C(=O)N(CC(=O)Nc3c(C(C)C)cccc3C(C)C)C(=O)C23CCN(C(=O)OC(C)(C)C)CC3)cc1
Second: CC(C)(C)OC(=O)c1sc(NCc2ccccc2)c2c1CCCC2=O
The melting point of the first is higher: 227 to 229 °C for the first, 125 to 126 °C for the second.

Compared with `COc1nc2cc(Cl)c(Cl)c(CSC)c2nc1OC`, `COc1ccc(-c2nc(Sc3ccc(Cl)c(Cl)c3)n(C3CCCCO3)c2-c2ccc(OC)cc2)cc1` (stereo not given) is lower in melting point: 143 to 145 °C for the first, 125 to 127 °C for the second.

Going from `O=C(CC1CC(O)CO1)NC1CCC(CCN2CCN(c3nccc4c3CCO4)CC2)CC1` (stereo not given) to `COC(=O)c1ccc(N2CCC(N(C)Cc3ccc(F)cc3)CC2)cc1`, the melting point falls from 155 °C to 92 °C.

First: O=C1NC(CCO)CO1 (stereo not given)
Second: CCCCc1cc(C)cc(=O)[nH]1
The melting point of the first is lower: 90 to 91 °C for the first, 95 °C for the second.

`CCC(Oc1ccc(C=Cc2nc[nH]n2)cc1)C(N)=O` (stereo not given) and `CCCCOc1ccc2c(c1)CCC(C(=O)O)=C2` cannot be ordered by melting point: 150 °C for the first, 148 to 150 °C for the second.

First: CC1(C2CCC3C4CCC5CC=CCC5(C)C4C(O)CC32C)OCCO1 (stereo not given)
Second: O=C1CCC(N2C(=O)c3cccc(Nc4ccc(C5CCCCC5)cc4)c3C2=O)C(=O)N1 (stereo not given)
The melting point of the first is lower: 141 to 145 °C for the first, 219 to 221 °C for the second.

First: CCCn1nc(-c2cnc3[nH]cc(C(=O)N[C@H](C)C(=O)N4CC(C#N)C4)c3n2)c2ccc(Cl)cc21
Second: N#CC1CN(c2c(F)cc3c(=O)c(C(=O)O)cn(C4CC4)c3c2F)C1
The melting point of the first is lower: 219 to 221 °C for the first, over 325 °C for the second.

Compared with `c1ccc(SC2CCN(C(c3ccccc3)c3ccccc3)CC2)cc1`, `CC(=O)NC[C@@H]1CCCc2cc(Sc3ccccc3)cc(F)c21` is lower in melting point: 118 to 119 °C for the first, 94.6 to 95.9 °C for the second.

First: CC(C)NC(=O)CC(=O)C=Cc1ccccc1[N+](=O)[O-]
Second: Cc1csc2ncc(C(O)CC(C)c3ccccc3)n12 (stereo not given)
The melting point of the first is lower: 132 to 135 °C for the first, 135 to 136 °C for the second.

First: CC(C)CNc1nc2c(n1C)C(=O)N1CCN=C1N2Cc1ccc(Cl)cc1
Second: CC(C)Cc1nc2sc3c(NCc4cccnc4)ncnc3c2c2c1COC(C)(C)C2
The melting point of the first is lower: 185 to 187 °C for the first, 244 to 245 °C for the second.

First: COC(=O)c1sccc1OCC(O)CN1CCC(O)(c2ccccc2)CC1 (stereo not given)
Second: O=C(NO)c1cnc(N2CCN(S(=O)(=O)c3ccc(C(=O)Nc4ccc(Cl)c(-c5ccccn5)c4)cc3Cl)CC2)nc1
The melting point of the first is lower: 150 to 152 °C for the first, 159 °C for the second.

Compared with `CC(=O)OC1CC(n2cc(C=CBr)c(=O)[nH]c2=O)OC1C(O)F` (stereo not given), `COc1c(Cl)ccc(-c2nc(C(=O)NOC3CCCCO3)c(Cl)c(N)c2F)c1F` (stereo not given) is higher in melting point: 81 °C for the first, 177 to 180 °C for the second.

First: CCC(=S)c1ccc(C)cc1
Second: C=Cc1c(C(C)C)nc(C(C)C)c(CCCCC)c1-c1ccc(F)cc1
The melting point of the first is higher: 55 to 56 °C for the first, 44 to 46 °C for the second.
